pEC50: −log10 of the molar value. Where “and” joins values, the source holds several entries; their conditions need not be identical. Identical values can stand only once.
Experiments:
[1] = test system: NQO1 activation in BEAS-2B cells; assay: BEAS-2B cellular MTT assay of NQO1 activation, 0% HSA; type: cell-based
Procedure: (§1) The growth rate of the BEAS-2B cells changed based on the lot of BEGM SingleQuots in the BEGM media. The cell growth rate was determined for each lot of SingleQuots. Ideally, cells were thawed into media with the new lot of SingleQuots and grown for two passages before testing; however, growing an active culture in the new lot of media for two to three passages before testing was also acceptable. Until the cell growth rate was determined, cells were seeded at different densities (cells/cm^2) in multiple tissue culture flasks in order to avoid the cells becoming more than 70% confluent. Cells should not go above 70% confluent as the cells differentiate when they become confluent. After the cells were grown in the new lot of media as described above, the number of cells per well needed to seed in the collagen plates was determined by seeding different numbers of cells per well and incubating for 48 hours. Cell confluency was checked after 48 hours and a cell number that results in just below to just above confluency was chosen for future plate seeding. Cell confluency in the assay plate was 95-100% confluent after 48 hours.
(§2) Cell media consists of BEBM basal media with the BEGM SingleQuots added. SingleQuots vials were thawed in the tissue culture hood, and GA-1000 (Gentamicin-Amphotericin) was not added.
(§3) If complete media was to be used immediately, BEBM basal media was warmed to room temperature in the hood, but not as high as 37° C. When the media was made for future use, SingleQuots were added to cold BEBM. One at a time, the SingleQuots components (except GA-1000) were added to the BEBM media. After removal of each component from the vial, the vial was rinsed with 0.5-1 mL of BEBM (depending on the volume the vial could hold) and added to the bottle of BEBM. Once all components were added, the label that comes with the SingleQuots kit was put on the bottle of media and the date was recorded. The bottle of media was mixed by gentle shaking. The media was not filtered. This media was stored at 4° C., with any leftover media disposed of one month after the date the SingleQuots were added.
(§4) BEAS-2B Cell Splitting Protocol:
(§5) First, Trypsin was warmed to 37° C. in the water bath. The media was then warmed to room temperature by letting it sit in the tissue culture hood, but not as high as 37° C. The media was aspirated from flask(s) and the flask(s) were washed with PBS. From 1 to 1.5 mL of warm trypsin were added to each flask and incubated at 37° C. until cells came off the flask on their own (~8-10 minutes), with no vigorous tapping on the flask to detach the cells.
(§6) Media was added to each flask to a total volume of 8-10 mL per flask and transferred to 15 mL conical tube(s). The cells were spun down at 120 g for 5 minutes, level 5 brake. The cells can be spun down between 100 and 150 g. Next the media was aspirated and the cell pellet was resuspended in fresh media by pipetting up and down and flicking the tube side to side. Any clumps of cells that remained were allowed to settle to the bottom of the tube before the top suspension was transferred into another tube, leaving about 1 mL of media in the original tube. The 1 mL of media and cell clumps were mixed with a single channel p1000 pipette, and any remaining clumps were removed before adding the cells in suspension to the other tube. The suspension was mixed with a pipette, an aliquot was removed, and the cells were counted. The amount of cells/cm^2 desired was calculated and the required volume of cells was added to tissue culture flasks. For example, use of SingleQuots with ~6000 cells/cm^2 was appropriate for a three day incubation and ~3000 cells/cm^2 for a five day incubation. Optimal cell density differed depending on lot of SingleQuots. The flasks were incubated at 37° C. in 5% CO2.
(§7) Day One: Seeding BEAS-2B Cells in Collagen Plates:
(§8) Plate(s) were either seeded with 0.3% or 0% HSA. While the protocol was similar for both conditions any differences are noted herein below. […]

[2] = test system: NQO1 activation in BEAS-2B cells; assay: BEAS-2B cellular MTT assay of NQO1 activation, 0.3% HSA; type: cell-based
Procedure: as §1, §2, §3, §4, §5, §6, §7, §8

[3] = Homo sapiens, Serum Free W, read-out: BEAS EC50 (nM) Serum Free W
[4] = Serum Free W, read-out: BEAS EC50 (nM) Serum Free W
[5] = BEAS+ W, read-out: BEAS+ W EC50
[6] = Homo sapiens, BEAS+ W, read-out: BEAS+ W EC50
[7] = Homo sapiens, serum free, read-out: BEAS EC50 (nM) serum free
[8] = serum free, read-out: BEAS EC50 (nM) serum free
[9] = Homo sapiens, BEAS+, read-out: BEAS+ EC50

| Compound | EC50 [1, 3] | EC50 [1, 4] | pEC50 [2, 5] | pEC50 [2, 6] | EC50 [1, 7] | EC50 [1, 8] | pEC50 ([2]; BEAS+, read-out: BEAS+ EC50) | pEC50 [2, 9] |
| --- | --- | --- | --- | --- | --- | --- | --- | --- |
| Cc1cc2cnc1OCCCCCc1ccc(cc1)C(=O)N1CCc3ccc(cc3C1)[C@@H]2[C@H](C)C(=O)O [Compound 71] | 3.4 nM | 3.3 nM | 7.88 | 7.98 | – | – | – | – |
| Cc1cc2ccc1C(=O)N1CCc3ccc(cc3C1)[C@H](CC(=O)O)c1ccc3c(nnn3CCCCCC2)c1C [Compound 245] | – | – | – | – | 19.4 nM | 18.5 nM | 7.42 | 7.61 |
| Cc1cc2ccc1C(=O)N1CCc3ccc(cc3C1)C(CC(=O)O)c1ccc3c(c1)nnn3CCCCCO2 (stereo not shown) [Compound 330] | – | – | – | – | 1070 nM | – | – | 6.06 |
| Cc1c2ccc3c1nnn3CCCCCCOc1ccc(c(F)c1)C(=O)N1CCc3ccc(cc3C1)[C@H]2[C@@H](C)C(=O)O [Compound 152] | – | – | – | – | > 10000 nM | – | – | < 5.00 |
| Cc1cc2ccc1C(=O)N1CCc3ccc(cc3C1)C(CC(=O)O)c1ccc3c(nnn3CCCCCC2)c1C (stereo not shown) [Compound 295] | – | – | – | – | 0.2 nM | – | – | 9.15 |
| Cc1c2ccc3c1nnn3CCCCCCOc1ccc(c(F)c1)C(=O)N1CCc3ccc(cc3C1)[C@@H]2[C@@H](C)C(=O)O [Compound 181] | – | – | – | – | 3.6 nM | 3.4 nM | 8.18 | 8.28 |
| Cc1cc2ncc1[C@@H]([C@H](C)C(=O)O)c1ccc3c(c1)CN(CC3)C(=O)c1ccc(cc1)CCCCCO2 [Compound 84] | 7.4 nM | 6.2 nM | 7.52 | 7.58 | – | – | – | – |
| Cc1cc2ncc1[C@H](C(C)(C)C(=O)O)c1ccc3c(c1)CN(CC3)C(=O)c1ccc(cc1)CCCCCO2 [Compound 53] | 8.7 nM | 12.3 nM | 7.32 | 7.41 | – | – | – | – |
| Cc1c2ccc3c1nnn3CCCCCCc1ccc(cc1)C(=O)N1CCc3ccc(cc3C1)[C@@H]2[C@@H](C)C(=O)O [Compound 132] | > 1000 nM | – | – | < 5.00 | – | – | – | – |
| Cc1cc2ncc1[C@@H]([C@@H](C)C(=O)O)c1ccc3c(c1)CN(CC3)C(=O)c1ccc(cc1)CCCCCO2 [Compound 82] | 594 nM | 641 nM | 5.75 | 5.71 | – | – | – | – |
| Cc1c2ccc3c1nnn3CCOCCCOc1ccc(c(F)c1)C(=O)N1CCc3ccc(cc3C1)C2CC(=O)O (stereo not shown) [Compound 382] | – | – | – | – | 86.2 nM | 125 nM | 6.87 | 6.77 |
| O=C(O)CC1c2ccc3c(c2)CN(CC3)C(=O)c2ccc(cc2)OCCCCCCn2nnc3cc1ccc32 (stereo not shown) [Compound 329] | – | – | – | – | 403 nM | – | – | 5.91 |
| Cc1c2ccc3c1nnn3CCCCCCOc1ccc(c(F)c1)C(=O)N1CCc3ccc(cc3C1)[C@H]2CC(=O)O [Compound 255] | – | – | – | – | 4.8 nM | 4 nM | 6.54 | 6.54 |
| COc1cc2ncc1[C@@H](CC(=O)O)c1ccc3c(c1)CN(CC3)C(=O)c1ccc(cc1)CCCCCO2 [Compound 73] | 287 nM | 373 nM | 6.23 | 6.33 | – | – | – | – |
| Cc1c2ccc3c1nnn3CCCCCc1ccc(cc1)C(=O)N1CCc3ccc(cc3C1)[C@@H]2[C@H](C)C(=O)O [Compound 116] | 130 nM | 84.8 nM | 6.60 | 6.67 | – | – | – | – |
| Cc1c2ccc3c1nnn3CCCCCCOc1ccc(c(F)c1)C(=O)N1CCc3ccc(cc3C1)[C@H]2[C@H](C)C(=O)O [Compound 156] | – | – | – | – | 55.9 nM | 44.3 nM | 6.77 | 6.70 |
| COc1cc2ccc1C(=O)N1CCc3ccc(cc3C1)[C@@H](CC(=O)O)c1ccc3c(nnn3CCCCCC2)c1C [Compound 109] | 32.1 nM | 38 nM | 7.00 | 6.76 | – | – | – | – |
| Cc1c2ccc3c1nnn3CCCCCCOc1ccc(c(F)c1)C(=O)N1CCc3ccc(cc3C1)[C@@H]2CC(=O)O [Compound 257] | – | – | – | – | 7.4 nM | 4.3 nM | 6.84 | 6.64 |
| Cc1c2ccc3c1nnn3CCCCCc1ccc(cc1)C(=O)N1CCc3ccc(cc3C1)[C@@H]2[C@H](C)C(=O)O [Compound 160] | – | – | – | – | 9.4 nM | 7 nM | 7.88 | 7.91 |
| COc1cc2ncc1[C@H](CC(=O)O)c1ccc3c(c1)CN(CC3)C(=O)c1ccc(cc1)CCCCCO2 [Compound 79] | 733 nM | 810 nM | 5.69 | 5.76 | – | – | – | – |
| Cc1c2ccc3c1nnn3CCCCCCOc1ccc(c(F)c1)C(=O)N1CCc3ccc(cc3C1)C2CC(=O)O (stereo not shown) [Compound 317] | – | – | – | – | 0.6 nM | – | – | 7.92 |
| Cc1cc2ncc1[C@@H](C(C)(C)C(=O)O)c1ccc3c(c1)CN(CC3)C(=O)c1ccc(cc1)CCCCCO2 [Compound 54] | 0.2 nM | 0.1 nM | – | – | – | – | – | – |
| Cc1c2ccc3c1nnn3CCCCCCOc1ccc(c(F)c1)C(=O)N1CCc3ccc(cc3C1)[C@@H]2[C@H](C)C(=O)O [Compound 177] | – | – | – | – | 43.7 nM | 36.1 nM | 6.85 | 6.97 |
| COc1cc2ccc1C(=O)N1CCc3ccc(cc3C1)C(CC(=O)O)c1ccc3c(nnn3CCCCCC2)c1C (stereo not shown) [Compound 188] | – | – | – | – | 9.4 nM | 9.1 nM | 7.83 | 7.82 |
| COc1cc2ccc1C(=O)N1CCc3ccc(cc3C1)[C@H](CC(=O)O)c1ccc3c(nnn3CCCCCC2)c1C [Compound 108] | 7.2 nM | 7.9 nM | – | – | – | – | – | – |
| C[C@@H](C(=O)O)[C@H]1c2ccc(nc2)OCCCCCc2ccc(cc2)C(=O)N2CCc3ccc1cc3C2 [Compound 57] | – | 0.3 nM | 9.22 | – | – | – | – | – |
| Cc1cc2cnc1OCCCCCc1ccc(cc1)C(=O)N1CCc3ccc(cc3C1)[C@@H]2[C@@H](C)C(=O)O [Compound 72] | > 1000 nM | 1930 nM | 5.11 | 5.01 | – | – | – | – |
| Cc1c2ccc3c1nnn3CCCCCCc1ccc(cc1)C(=O)N1CCc3ccc(cc3C1)[C@@H]2[C@@H](C)C(=O)O (racemic) [Compound 201] | – | – | – | – | – | 0.3 nM and 0.1 nM | 9.30 and 9.70 | – |
| CC(C)(C(=O)O)C1c2ccc3c(c2)CN(CC3)C(=O)c2ccc(cc2)OCCCCCCn2nnc3cc1ccc32 (stereo not shown) [Compound 287] | – | – | – | – | 3.1 nM | – | – | 6.95 |
